Assays:
[1] = biological target: T1, ABHD6 (Mus musculus, UniProt Q8R2Y0); assay: In vitro competitive activity-based protein profiling, mouse brain proteome (ABHD6); format: biochemical; settings: for % Inh ABHD6 Brain (Mouse, μM): mouse brain proteome, concentration not given (μM)
T1 construct: Brain; from tissue; host or cells: mouse brain proteome
T1 sequence (Q8R2Y0 1-336): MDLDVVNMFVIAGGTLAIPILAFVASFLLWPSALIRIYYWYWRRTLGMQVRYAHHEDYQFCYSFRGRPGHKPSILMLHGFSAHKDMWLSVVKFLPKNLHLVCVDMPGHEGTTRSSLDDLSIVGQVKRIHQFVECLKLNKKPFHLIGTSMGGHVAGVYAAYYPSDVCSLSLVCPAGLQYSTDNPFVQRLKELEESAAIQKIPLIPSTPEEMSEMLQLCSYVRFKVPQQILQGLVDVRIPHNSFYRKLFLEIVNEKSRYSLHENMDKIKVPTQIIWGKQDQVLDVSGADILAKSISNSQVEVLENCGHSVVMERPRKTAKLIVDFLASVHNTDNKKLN
Protocol: [The source words this procedure for another target and reports this target under the same test.] In Vitro Competitive Activity-Based Protein Profiling.
Proteomes (human prefrontal cortex or cell membrane fractions) (50 μL, 1.0 mg/mL total protein concentration) were preincubated with varying concentrations of inhibitors at 37° C. After 30 min, FP-Rh or HT-01 (1.0 μL, 50 μM in DMSO) was added and the mixture was incubated for another 30 min at room temperature. Reactions were quenched with SDS loading buffer (15 μL-4×) and run on SDS-PAGE.

[2] = biological target: T2, MGLL (Mus musculus, UniProt O35678); assay: In vitro competitive activity-based protein profiling, mouse brain proteome (MGLL); format: biochemical; settings: concentration not given (μM)
T2 construct: Brain; from tissue; host or cells: mouse brain proteome
T2 sequence (O35678 1-303): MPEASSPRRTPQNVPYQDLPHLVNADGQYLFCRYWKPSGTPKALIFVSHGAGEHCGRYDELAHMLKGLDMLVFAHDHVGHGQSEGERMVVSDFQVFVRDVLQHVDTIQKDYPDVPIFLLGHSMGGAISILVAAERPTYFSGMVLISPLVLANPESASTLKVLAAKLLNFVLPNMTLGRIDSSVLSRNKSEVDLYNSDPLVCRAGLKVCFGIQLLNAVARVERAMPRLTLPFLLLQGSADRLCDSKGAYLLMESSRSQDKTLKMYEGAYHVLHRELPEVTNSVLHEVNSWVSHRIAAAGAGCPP

SMILES | % Inh ABHD6 Brain (Mouse, μM) [1] | % Inh MGLL Brain (Mouse, μM) [2] | IC50 ([1]; mouse proteome) [nM]
CCN1CC2(CCN(c3cc(Cl)cc(CN4CCCC45CN(C(=O)OC(C(F)(F)F)C(F)(F)F)C5)c3)CC2)C1 [Example 241, 1,1,1,3,3,3-Hexafluoropropan-2-yl 5-(3-chloro-5-(2-ethyl-2,7-diazaspiro[3,5]nonan-7-yl)benzyl)-2,5-diazaspiro[3,4]octane-2-carboxylate] | # (# is ≤25%) | # (# is ≤25%) | –
CC(=O)N1CC2(CCN(c3ccccc3CN3CCCCC34CCN(C(=O)OC(C(F)(F)F)C(F)(F)F)CC4)C2)C1 [Example 229, 1,1,1,3,3,3-Hexafluoropropan-2-yl 1-(2-(2-acetyl-2,6-diazaspiro[3,4]octan-6-yl)benzyl)-1,9-diazaspiro[5.5]undecane-9-carboxylate] | # (# is ≤25%) | ## (## is between 25 and 75%) | –
O=C(OC(C(F)(F)F)C(F)(F)F)N1CCC2(CC1)CN(Cc1ccc(N3CCOCC3)cc1)C2 [Example 81, 1,1,1,3,3,3-Hexafluoropropan-2-yl 2-(4-morpholinobenzyl)-2,7-diazaspiro[3.5]nonane-7-carboxylate] | ### (### is ≥75%) | ### (### is ≥75%) | –
O=C(OC(C(F)(F)F)C(F)(F)F)N1CC2(CCN(Cc3cccc(N4CCCC4)c3)CC2)C1 [Example 77, 1,1,1,3,3,3-Hexafluoropropan-2-yl 7-(3-(pyrrolidin-1-yl)benzyl)-2,7-diazaspiro[3.5]nonane-2-carboxylate] | ### (### is ≥75%) | ## (## is between 25 and 75%) | –
CC(=O)N1CCCc2cccc(CN3CCC4(CC3)CN(C(=O)OC(C(F)(F)F)C(F)(F)F)C4)c21 [Example 152, 1,1,1,3,3,3-Hexafluoropropan-2-yl 7-((1-acetyl-1,2,3,4-tetrahydroquinolin-8-yl)methyl)-2,7-diazaspiro[3.5]nonane-2-carboxylate] | ### (### is ≥75%) | ### (### is ≥75%) | –
O=C(OC(C(F)(F)F)C(F)(F)F)N1CCC2(CC1)CN(Cc1c(Cl)cccc1N1CCN(C3CC3)CC1)C2 [Example 58, 1,1,1,3,3,3-Hexafluoropropan-2-yl 2-(2-chloro-6-(4-cyclopropvlpiperazin-1-yl)benzyl)-2,7-diazaspiro[3.5]nonane-7-carboxylate] | ### (### is ≥75%) | ### (### is ≥75%) | –
O=C(OC(C(F)(F)F)C(F)(F)F)N1CCC2(CC1)CN(Cc1c(Cl)cccc1N1CC3COCC3C1)C2 (stereo not drawn) [Example 57, 1,1,1,3,3,3-Hexafluoropropan-2-yl 2-(2-chloro-6-(tetrahydro-1H-furo[3,4-c]pyrrol-5(3H)-yl)benzyl)-2,7-diazaspiro[3.5]nonane-7-carboxylate] | ### (### is ≥75%) | ### (### is ≥75%) | –
O=C(OC(C(F)(F)F)C(F)(F)F)N1CC2(CCN(Cc3ccc(Cl)cc3)CC2)C1 [Example 75, 1,1,1,3,3,3-Hexafluoropropan-2-yl 7-(4-chlorobenzyl)-2,7-diazaspiro[3.5]nonane-2-carboxylate] | ### (### is ≥75%) | ### (### is ≥75%) | –
O=C(OC(C(F)(F)F)C(F)(F)F)N1CC2(CCN(Cc3ccc(N4CCOCC4)cc3)CC2)C1 [Example 65, 1,1,1,3,3,3-Hexafluoropropan-2-yl 7-(4-morpholinobenzyl)-2,7-diazaspiro[3.5]nonane-2-carboxylate] | ### (### is ≥75%) | ### (### is ≥75%) | –
Cc1cc(-c2ccccc2)ccc1CN1CCC2(CC1)CN(C(=O)OC(C(F)(F)F)C(F)(F)F)C2 [Example 19, 1,1,1,3,3,3-Hexafluoropropan-2-yl 7-((3-methyl-[1,1′-biphenyl]-4-yl)methyl)-2,7-diazaspiro[3.5]nonane-2-carboxylate] | ### (### is ≥75%) | ## (## is between 25 and 75%) | –

More lines, now with the values ahead:

% Inh ABHD6 Brain (Mouse, μM) [1] | % Inh MGLL Brain (Mouse, μM) [2] | IC50 ([1]; mouse proteome) [nM] | SMILES
# (# is ≤25%) | ### (### is ≥75%) | – | CC(=O)N1CCCC12CCN(c1cc(C(F)(F)F)ccc1CN1CCN(C(=O)OC(C(F)(F)F)C(F)(F)F)CC1)CC2 [Example 208, 1,1,1,3,3,3-Hexafluoropropan-2-yl 4-(2-(1-acetyl-1,8-diazaspiro[4.5]decan-8-yl)-4-(trifluoromethyl)benzyl) piperazine-1-carboxylate]
# (# is ≤25%) | ### (### is ≥75%) | – | CN1CC2(CCN(c3cc(Cl)ccc3CN3CCN(C(=O)OC(C(F)(F)F)C(F)(F)F)CC3)C2)C1 [Example 169, 1,1,1,3,3,3-Hexafluoropropan-2-yl 4-(4-chloro-2-(2-methyl-2,6-diazaspiro[3.4]octan-6-yl)benzyl)piperazine-1-carboxylate]
## (## is between 25 and 75%) | ### (### is ≥75%) | – | O=C(OC(C(F)(F)F)C(F)(F)F)N1CCC2(CC1)CN(Cc1c(N3CCOCC3)cccc1C(F)(F)F)C2 [Example 43, 1,1,1,3,3,3-Hexafluoropropan-2-yl 2-(2-morpholino-6-(trifluoromethyl)benzyl)-2,7-diazaspiro[3.5]nonane-7-carboxylate]
## (## is between 25 and 75%) | ### (### is ≥75%) | 100 to 1000 | O=C(OC(C(F)(F)F)C(F)(F)F)N1CCC2(CC1)CN(Cc1c(N3CCCCC3)cccc1C(F)(F)F)C2 [Example 41, 1,1,1,3,3,3-Hexafluoropropan-2-yl 2-(2-(piperidin-1-yl)-6-(trifluoromethyl)benzyl)-2,7-diazaspiro[3.5]nonane-7-carboxylate]
# (# is ≤25%) | ### (### is ≥75%) | – | O=C(OC(C(F)(F)F)C(F)(F)F)N1CCC2(CCN(Cc3cccc(Cl)c3N3CCCC3)CC2)C1 [Example 171, 1,1,1,3,3,3-Hexafluoropropan-2-yl 8-(3-chloro-2-(pyrrolidin-1-yl)benzyl)-2,8-diazaspiro[4.5]decane-2-carboxylate]
# (# is ≤25%) | ### (### is ≥75%) | – | CS(=O)(=O)N1CC2(CCN(c3ccccc3CN3CCN(C(=O)OC(C(F)(F)F)C(F)(F)F)CC3)C2)C1 [Example 167, 1,1,1,3,3,3-Hexafluoropropan-2-yl 4-(2-(2-(methylsulfonyl)-2,6-diazaspiro[3,4]octan-6-yl)benzyl)piperazine-1-carboxylate]
### (### is ≥75%) | ### (### is ≥75%) | – | O=C(OC(C(F)(F)F)C(F)(F)F)N1CCC2(CC1)CN(Cc1c(N3CCN(C4CC4)CC3)cccc1C(F)(F)F)C2 [Example 60, 1,1,1,3,3,3-Hexafluoropropan-2-yl 2-(2-(4-cyclopropylpiperazin-1-yl)-6-(trifluoromethyl)benzyl)-2,7-diazaspiro[3.5]nonane-7-carboxylate]
### (### is ≥75%) | ### (### is ≥75%) | – | O=C(OC(C(F)(F)F)C(F)(F)F)N1CCC2(CC1)CN(Cc1ccc(Cl)cc1N1CCCC1)C2 [Example 34]
## (## is between 25 and 75%) | ### (### is ≥75%) | – | CS(=O)(=O)N1CCC2(CCN(c3cc(Cl)cc(CN4CCCC45CN(C(=O)OC(C(F)(F)F)C(F)(F)F)C5)c3)C2)CC1 [Example 237, 1,1,1,3,3,3-Hexafluoropropan-2-yl 5-(3-chloro-5-(8-(methylsulfonyl)-2,8-diazaspiro[4.5]decan-2-yl)benzyl)-2,5-diazaspiro[3.4]octane-2-carboxylate]
### (### is ≥75%) | ### (### is ≥75%) | – | O=C(OC(C(F)(F)F)C(F)(F)F)N1CCC2(CC1)CN(Cc1ccc(Cl)cc1N1CCOCC1)C2 [Example 39, 1,1,1,3,3,3-Hexafluoropropan-2-yl 2-(4-chloro-2-morpholinobenzyl)-2,7-diazaspiro[3.5]nonane-7-carboxylate]
### (### is ≥75%) | ### (### is ≥75%) | – | CS(=O)(=O)N1CCN(c2cccc(Cl)c2CN2CC3(CCN(C(=O)OC(C(F)(F)F)C(F)(F)F)CC3)C2)CC1 [Example 44, 1,1,1,3,3,3-Hexafluoropropan-2-yl 2-(2-chloro-6-(4-(methylsulfonyl)piperazin-1-yl)benzyl)-2,7-diazaspiro[3.5]nonane-7-carboxylate]
# (# is ≤25%) | ### (### is ≥75%) | – | CS(=O)(=O)N1CCC2(CCN(c3cc(C(F)(F)F)ccc3CN3CCN(C(=O)OC(C(F)(F)F)C(F)(F)F)CC3)CC2)C1 [Example 185, 1,1,1,3,3,3-Hexafluoropropan-2-yl 4-(2-(2-(methylsulfonyl)-2,8-diazaspiro[4.5]decan-8-yl)-4-(trifluoromethyl)benzyl) piperazine-1-carboxylate]
